This test has as its target Aurora A (Homo sapiens (Human), UniProt O14965). Kind of test: Aurora A inhibition assay (Z-Lyte). The test is classed as biochemical.

Where a name gives a salt, the structure may show the parent alone.

Aurora A, sequence (O14965 whole entry): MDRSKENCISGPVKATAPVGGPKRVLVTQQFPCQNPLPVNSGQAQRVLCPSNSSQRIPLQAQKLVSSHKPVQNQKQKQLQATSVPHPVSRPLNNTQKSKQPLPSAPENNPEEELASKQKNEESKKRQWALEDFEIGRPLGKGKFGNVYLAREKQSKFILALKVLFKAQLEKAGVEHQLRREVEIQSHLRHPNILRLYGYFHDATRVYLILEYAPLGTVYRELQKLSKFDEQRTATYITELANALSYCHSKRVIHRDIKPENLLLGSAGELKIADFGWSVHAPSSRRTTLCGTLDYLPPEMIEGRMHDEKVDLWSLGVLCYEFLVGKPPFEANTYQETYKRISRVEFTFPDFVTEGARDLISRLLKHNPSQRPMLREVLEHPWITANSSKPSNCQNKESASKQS

As a reminder, the inhibition is the change of the read-out against control, counted positive when it falls. Read a high inhibition as a response far below the control. `COc1ccc2c(c1)[C@]1(C[C@H]1c1ccc3c(-c4ccc5c(c4)CNCC5)n[nH]c3c1)C(=O)N2` [Example A71, (1R,2S)-5′-methoxy-2-(3-(1,2,3,4-tetrahydroisoquinolin-7-yl)-1H-indazol-6-yl)spiro[cyclopropane-1,3′-indolin]-2′-one 2,2,2-trifluoroacetate salt]: the inhibition at 1 µM was less than 50%.
With `Cc1ccc2c(c1)[C@]1(C[C@H]1c1ccc3c(-c4ccc(N5CCN(C)CC5)cc4)n[nH]c3c1)C(=O)N2` (relative stereo) [Example A173, (1R*,2S*)-5′-methyl-2-(3-(4-(4-methylpiperazin-1-yl)phenyl)-1H-indazol-6-yl)spiro[cyclopropane-1,3′-indolin]-2′-one 2,2,2-trifluoroacetate] the figure was less than 50%.
The molecule `CN1CCc2cc(/C=C/c3n[nH]c4cc([C@@H]5C[C@@]56C(=O)Nc5ccccc56)ccc34)ccc2C1` [Example A74, (1R,2S)-2-(3-((E)-2-(2-methyl-1,2,3,4-tetrahydroisoquinolin-6-yl)vinyl)-1H-indazol-6-yl)spiro[cyclopropane-1,3′-indolin]-2′-one 2,2,2-trifluoroacetate salt] showed an inhibition at 1 µM of more than 50%.
With `C[C@@H]1CCC[C@H](C)N1Cc1ccc(/C=C/c2n[nH]c3cc([C@@H]4C[C@@]45C(=O)Nc4ccccc45)ccc23)cc1` [Example A201, (1R,2S)-(E)-2-(3-(4-((cis-2,6-dimethylpiperidin-1-yl)methyl)styryl)-1H-indazol-6-yl)spiro[cyclopropane-1,3′-indolin]-2′-one 2,2,2-trifluoroacetate] the figure was more than 50%; with `O=C1Nc2ccccc2[C@]12C[C@H]2c1ccc2c(/C=C/c3ccc(CN4CC[C@@H](F)C4)cc3)n[nH]c2c1` [Example A106, (1R,2S)-(E)-2-(3-(4-(((R)-3-fluoropyrrolidin-1-yl)methyl)styryl)-1H-indazol-6-yl)spiro[cyclopropane-1,3′-indolin]-2′-one 2,2,2-trifluoroacetate], more than 50%.
With `COc1ccc2c(c1)[C@]1(CC1c1ccc3c(/C=C/c4ccc(N5CCN(C)CC5)nc4)n[nH]c3c1)C(=O)N2` (single isomer, unassigned) [Example A31, (1R*,2S*)-5′-methoxy-2-(3-((E)-2-(6-(4-methylpiperazin-1-yl)pyridin-3-yl)vinyl)-1H-indazol-6-yl)spiro[cyclopropane-1,3′-indolin]-2′-one] the figure was more than 50%; with `COc1ccc2c(c1)[C@]1(C[C@H]1c1ccc3c(/C=C/c4ccc(N5CCN(C)CC5)cc4)n[nH]c3c1)C(=O)N2` [Example A175, (1R,2S)-(E)-5′-methoxy-2-(3-(4-(4-methylpiperazin-1-yl)styryl)-1H-indazol-6-yl)spiro[cyclopropane-1,3′-indolin]-2′-one 2,2,2-trifluoroacetate], less than 50%; with `CCN1CCN(c2ccc(/C=C/c3n[nH]c4cc([C@@H]5C[C@@]56C(=O)Nc5ccc(OC)cc56)ccc34)cc2)CC1` (relative stereo) [Example A188, (1R*,2S*)-(E)-2-(3-(4-(4-ethylpiperazin-1-yl)styryl)-1H-indazol-6-yl)-5′-methoxyspiro[cyclopropane-1,3′-indolin]-2′-one 2,2,2-trifluoroacetate], more than 50%.
Turning to `CN1CCN(C(=O)c2ccc(-c3n[nH]c4cc([C@@H]5C[C@@]56C(=O)Nc5ccccc56)ccc34)cc2)CC1` (relative stereo) [Example A156, (1R*,2S*)-2-(3-(4-(4-methylpiperazine-1-carbonyl)phenyl)-1H-indazol-6-yl)spiro[cyclopropane-1,3′-indolin]-2′-one 2,2,2-trifluoroacetate], the inhibition at 1 µM is less than 50%.
The molecule `COc1ccc2c(c1)C1(CC1c1ccc3c(I)n[nH]c3c1)C(=O)N2` (single isomer, unassigned) [Example A6, (1R*,2S*)- and (1R*,2R*)-2-(3-iodo-1H-indazol-6-yl)-5′-methoxyspiro-[cyclopropane-1,3′-indolin]-2′-one] displayed an inhibition at 1 µM of less than 50%.
In the case of `CN(C)Cc1cccc(/C=C/c2n[nH]c3cc([C@@H]4C[C@@]45C(=O)Nc4ccccc45)ccc23)c1` (relative stereo) [Example A162, (1R*,2S*)-(E)-2-(3-(3-((dimethylamino)methyl)styryl)-1H-indazol-6-yl)spiro[cyclopropane-1,3′-indolin]-2′-one 2,2,2-trifluoroacetate], the inhibition at 1 µM is more than 50%.
The value for `COc1ccc2c(c1)[C@]1(C[C@H]1c1ccc3c(-c4ccc(OCCN5CCCCC5)cc4)n[nH]c3c1)C(=O)N2` [Example A67, (1R,2S)-5′-methoxy-2-(3-(4-(2-(piperidin-1-yl)ethoxy)phenyl)-1H-indazol-6-yl)spiro[cyclopropane-1,3′-indolin]-2′-one 2,2,2-trifluoroacetate salt] was less than 50%.
The value for `O=C1Nc2ccccc2[C@]12C[C@H]2c1ccc2c(/C=C/c3ccc(CN4CCCC4)cc3)n[nH]c2c1` [Example A61, (1R,2S)-(E)-2-(3-(4-(pyrolidin-1-ylmethyl)styryl)-1H-indazol-6-yl)spiro[cyclopropane-1,3′-indolin]-2′-one 2,2,2-trifluoroacetate] was more than 50%; that for `COc1ccc2c(c1)[C@]1(C[C@H]1c1ccc3c(-c4cccc(N5CCNCC5)c4)n[nH]c3c1)C(=O)N2` (relative stereo) [Example A47, (1R*,2S*)-5′-methoxy-2-(3-(3-(piperazin-1-yl)phenyl)-1H-indazol-6-yl)spiro[cyclopropane-1,3′-indolin]-2′-one 2,2,2-trifluoroacetate] was less than 50%; that for `CN1CCc2ccc(/C=C/c3n[nH]c4cc([C@@H]5C[C@@]56C(=O)Nc5ccccc56)ccc34)cc2C1` [Example A65, (1R,2S)-2-(3-((E)-2-(2-methyl-1,2,3,4-tetrahydroisoquinolin-7-yl)vinyl)-1H-indazol-6-yl)spiro[cyclopropane-1,3′-indolin]-2′-one 2,2,2-trifluoroacetate salt] was more than 50%.
As to `CN(C)Cc1ccc(/C=C/c2n[nH]c3cc([C@@H]4C[C@@]45C(=O)Nc4ccc(OC(F)F)cc45)ccc23)cc1` (relative stereo) [Example A214, (1R*,2S*)-(E)-5′-difluoromethoxy-2-(3-(4-((dimethylamino)methyl)styryl)-1H-indazol-6-yl)spiro[cyclopropane-1,3′-indolin]-2′-one 2,2,2-trifluoroacetate], the inhibition at 1 µM was more than 50%.
The value for `COc1ccc2c(c1)[C@]1(C[C@H]1c1ccc3c(/C=C/c4ccc(CC5CCN(C)CC5)cc4)n[nH]c3c1)C(=O)N2` [Example A82, (1R,2S)-(E)-5′-methoxy-2-(3-(4-((l-methylpiperidin-4-yl)methyl)styryl)-1H-indazol-6-yl)spiro[cyclopropane-1,3′-indolin]-2′-one 2,2,2-trifluoroacetate salt] was more than 50%.
With `CN1CCc2cc(-c3n[nH]c4cc([C@@H]5C[C@@]56C(=O)Nc5ccccc56)ccc34)ccc2C1` [Example A76, (1R,2S)-2-(3-(2-methyl-1,2,3,4-tetrahydroisoquinolin-6-yl)-1H-indazol-6-yl)spiro[cyclopropane-1,3′-indolin]-2′-one 2,2,2-trifluoroacetate salt] the figure was less than 50%.

Values taken from patent US10358436B2, “Kinase inhibitors and method of treating cancer” (University Health Network, priority 2010, dated 2019).
